Experimental data reported in US11622970B2, “BCL-2 inhibitors and their use as pharmaceuticals” (PRELUDE THERAPEUTICS INCORPORATED, priority 2020, dated 2023).

biological target: BCL-2 recombinant protein (Homo sapiens, UniProt P10415); test: Cell free Bcl-2:Bak affinity assay (Bcl-2 Bak), HTRF competition of FAM-Bak peptide; assay type: binding; conditions: 10-concentration IC50 mode, 4 nM BCL-2 recombinant protein, 100 nM FAM-Bak, read-out: potency (IC50)
In short: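 Compounds in 10-point 3-fold dilution preincubated 10 min at RT with 4 nM GST-BCL-2 (20 mM K phosphate pH 7.5, 50 mM NaCl, 1 mM EDTA, 0.005% Triton X-100), then 100 nM FAM-Bak 10 min, anti-GST-Tb added, 60 min RT dark. HTRF read; % inhibition vs DMSO and positive control, IC50 from curve fit.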

Sequence of BCL-2 recombinant protein (P10415 whole entry): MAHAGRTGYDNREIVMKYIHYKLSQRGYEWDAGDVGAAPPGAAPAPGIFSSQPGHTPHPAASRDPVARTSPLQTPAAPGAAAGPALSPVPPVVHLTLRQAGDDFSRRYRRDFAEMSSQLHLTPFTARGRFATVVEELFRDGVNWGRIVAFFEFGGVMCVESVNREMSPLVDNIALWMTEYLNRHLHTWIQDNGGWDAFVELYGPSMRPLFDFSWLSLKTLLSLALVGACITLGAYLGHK

IC50, 10 to 100 nM:
CC1(C)CCC(CN2CCN(c3ccc(S(=O)(=O)NC(=O)c4cc(COc5ccc(Cl)cc5)cc([N+](=O)[O-])c4)c(Oc4cnc5[nH]ccc5c4)c3)CC2)=C(c2ccc(Cl)cc2)C1 [Example 86, 3-[(4-Chlorophenoxy)methyl]-N-[4-[4-[[2-(4-chlorophenyl)-4,4-dimethylcyclohexen-1-yl]methyl]piperazin-1-yl]-2-(1H-pyrrolo[2,3-b]pyridin-5-yloxy)phenyl]sulfonyl-5-nitrobenzamide]
COCc1ccc(C(=O)NS(=O)(=O)c2ccc(N3CCN(CC4=C(c5ccc(Cl)cc5)CC(C)(C)CC4)CC3)cc2Oc2cnc3[nH]ccc3c2)cc1[N+](=O)[O-] [Example 87, N-[4-[4-[[2-(4-chlorophenyl)-4,4-dimethylcyclohexen-1-yl]methyl]piperazin-1-yl]-2-(1H-pyrrolo[2,3-b]pyridin-5-yloxy)phenyl]sulfonyl-4-(methoxymethyl)-3-nitrobenzamide]
CC1(C)CCC(CN2CCN(c3ccc(S(=O)(=O)NC(=O)c4ccc(CNc5ccc(Cl)cc5)c([N+](=O)[O-])c4)c(Oc4cnc5[nH]ccc5c4)c3)CC2)=C(c2ccc(Cl)cc2)C1 [Example 91, 4-[(4-chloroanilino)methyl]-N-[4-[4-[[2-(4-chlorophenyl)-4,4-dimethylcyclohexen-1-yl]methyl]piperazin-1-yl]-2-(1H-pyrrolo[2,3-b]pyridin-5-yloxy)phenyl]sulfonyl-3-nitrobenzamide]
CC1(C)CCC(CN2CCN(c3ccc(S(=O)(=O)NC(=O)c4ccnc5sccc45)c(Oc4cnc5[nH]ccc5c4)c3)CC2)=C(c2ccc(Cl)cc2)C1 [Example 93, N-[4-[4-[[2-(4-chlorophenyl)-4,4-dimethylcyclohexen-1-yl]methyl]piperazin-1-yl]-2-(1H-pyrrolo[2,3-b]pyridin-5-yloxy)phenyl]sulfonylthieno[2,3-b]pyridine-4-carboxamide]
CC1(C)CCC(CN2CCN(c3ccc(S(=O)(=O)NC(=O)c4ccc(CNC5CCOCC5)c([N+](=O)[O-])c4)c(Oc4cnc5[nH]ccc5c4)c3)CC2)=C(c2ccc(Cl)cc2)C1 [Example 96, N-[4-[4-[[2-(4-chlorophenyl)-4,4-dimethylcyclohexen-1-yl]methyl]piperazin-1-yl]-2-(1H-pyrrolo[2,3-b]pyridin-5-yloxy)phenyl]sulfonyl-3-nitro-4-[(oxan-4-ylamino)methyl]benzamide]
CNc1c([N+](=O)[O-])cc(C(=O)NS(=O)(=O)c2ccc(N3CCN(CC4=C(c5ccc(Cl)cc5)CC(C)(C)CC4)CC3)cc2Oc2cnc3[nH]ccc3c2)c(Cl)c1C [Example 98, 2-chloro-N-[4-[4-[[2-(4-chlorophenyl)-4,4-dimethylcyclohexen-1-yl]methyl]piperazin-1-yl]-2-(1H-pyrrolo[2,3-b]pyridin-5-yloxy)phenyl]sulfonyl-3-methyl-4-(methylamino)-5-nitrobenzamide]
CCNc1c([N+](=O)[O-])cc(C(=O)NS(=O)(=O)c2ccc(N3CCN(CC4=C(c5ccc(Cl)cc5)CC(C)(C)CC4)CC3)cc2Oc2cnc3[nH]ccc3c2)c(Cl)c1C [Example 99, 2-chloro-N-[4-[4-[[2-(4-chlorophenyl)-4,4-dimethylcyclohexen-1-yl]methyl]piperazin-1-yl]-2-(1H-pyrrolo[2,3-b]pyridin-5-yloxy)phenyl]sulfonyl-4-(ethylamino)-3-methyl-5-nitrobenzamide]
COc1c([N+](=O)[O-])cc(C(=O)NS(=O)(=O)c2ccc(N3CCN(CC4=C(c5ccc(Cl)cc5)CC(C)(C)CC4)CC3)cc2Oc2cnc3[nH]ccc3c2)c(Cl)c1C [Example 101, 2-chloro-N-[4-[4-[[2-(4-chlorophenyl)-4,4-dimethylcyclohexen-1-yl]methyl]piperazin-1-yl]-2-(1H-pyrrolo[2,3-b]pyridin-5-yloxy)phenyl]sulfonyl-4-methoxy-3-methyl-5-nitrobenzamide]

IC50, < 10 nM:
Cc1c(Cl)c(C(=O)NS(=O)(=O)c2ccc(N3CCN(CC4=C(c5ccc(Cl)cc5)CC(C)(C)CC4)CC3)cc2Oc2cnc3[nH]ccc3c2)cc([N+](=O)[O-])c1OCc1ccc(Cl)cc1 [Example 88, 2-Chloro-N-[4-[4-[[2-(4-chlorophenyl)-4,4-dimethylcyclohexen-1-yl]methyl]piperazin-1-yl]-2-(1H-pyrrolo[2,3-b]pyridin-5-yloxy)phenyl]sulfonyl-4-[(4-chlorophenyl)methoxy]-3-methyl-5-nitrobenzamide]
CC1(C)CCC(CN2CCN(c3ccc(S(=O)(=O)NC(=O)c4ccc(NCC5CCOCC5)c([N+](=O)[O-])c4)c(Oc4cnc5[nH]ccc5c4)c3)CC2)=C(c2ccc(Cl)cc2)C1 [Example 100, N-[4-[4-[[2-(4-chlorophenyl)-4,4-dimethylcyclohexen-1-yl]methyl]piperazin-1-yl]-2-(1H-pyrrolo[2,3-b]pyridin-5-yloxy)phenyl]sulfonyl-3-nitro-4-(oxan-4-ylmethylamino)benzamide]

IC50, > 1000 nM:
Cc1cc(S(C)(=O)=O)cc(C(=O)NS(=O)(=O)c2ccc(N3CCN(CC4=C(c5ccc(Cl)cc5)CC(C)(C)CC4)CC3)cc2Oc2cnc3[nH]ccc3c2)n1 [Example 97, N-[4-[4-[[2-(4-Chlorophenyl)-4,4-dimethylcyclohexen-1-yl]methyl]piperazin-1-yl]-2-(1H-pyrrolo[2,3-b]pyridin-5-yloxy)phenyl]sulfonyl-6-methyl-4-methylsulfonylpyridine-2-carboxamide]

IC50, 100 to 1000 nM:
CC1(C)CCC(CN2CCN(c3ccc(S(=O)(=O)NC(=O)c4ccc(COc5ccc(Cl)cc5)c(S(C)(=O)=O)c4)c(Oc4cnc5[nH]ccc5c4)c3)CC2)=C(c2ccc(Cl)cc2)C1 [Example 89, 4-[(4-chlorophenoxy)methyl]-N-[4-[4-[[2-(4-chlorophenyl)-4,4-dimethylcyclohexen-1-yl]methyl]piperazin-1-yl]-2-(1H-pyrrolo[2,3-b]pyridin-5-yloxy)phenyl]sulfonyl-3-methylsulfonylbenzamide]
CC1(C)CCC(CN2CCN(c3ccc(S(=O)(=O)NC(=O)c4ccc(CN5CCOCC5)c([N+](=O)[O-])c4)c(Oc4cnc5[nH]ccc5c4)c3)CC2)=C(c2ccc(Cl)cc2)C1 [Example 90, N-[4-[4-[[2-(4-chlorophenyl)-4,4-dimethylcyclohexen-1-yl]methyl]piperazin-1-yl]-2-(1H-pyrrolo[2,3-b]pyridin-5-yloxy)phenyl]sulfonyl-4-(morpholin-4-ylmethyl)-3-nitrobenzamide]
CC1(C)CCC(CN2CCN(c3ccc(S(=O)(=O)NC(=O)c4ccc5ccsc5n4)c(Oc4cnc5[nH]ccc5c4)c3)CC2)=C(c2ccc(Cl)cc2)C1 [Example 92, N-[4-[4-[[2-(4-chlorophenyl)-4,4-dimethylcyclohexen-1-yl]methyl]piperazin-1-yl]-2-(1H-pyrrolo[2,3-b]pyridin-5-yloxy)phenyl]sulfonylthieno[2,3-b]pyridine-6-carboxamide]
CC1(C)CCC(CN2CCN(c3ccc(S(=O)(=O)NC(=O)c4ccc([N+](=O)[O-])c(COc5ccc(Cl)cc5)c4)c(Oc4cnc5[nH]ccc5c4)c3)CC2)=C(c2ccc(Cl)cc2)C1 [Example 95, 3-[(4-Chlorophenoxy)methyl]-N-[4-[4-[[2-(4-chlorophenyl)-4,4-dimethylcyclohexen-1-yl]methyl]piperazin-1-yl]-2-(1H-pyrrolo[2,3-b]pyridin-5-yloxy)phenyl]sulfonyl-4-nitrobenzamide]
